Data from ChEMBL document CHEMBL3885881, “DrugMatrix”.

Species: Rattus norvegicus
Experiment: DrugMatrix - Regimen: Daily Repeat
Format: toxicity, organism-based, Sprague-Dawley
Parameters: regimen Daily Repeat, gender Male, age 6-8 weeks
Settings: in vivo, sc, route subcutaneous, […]; for ABSOLUTE BASOPHIL / ABSOLUTE EOSINOPHIL / ABSOLUTE LYMPHOCYTE / ABSOLUTE MONOCYTE / ABSOLUTE SEGMENTED NEUTROPHIL / BASOPHIL / EOSINOPHIL / ERYTHROCYTE COUNT / HEMATOCRIT / LEUKOCYTE COUNT / MEAN CORPUSCULAR HEMOGLOBIN / MEAN CORPUSCULAR HEMOGLOBIN CONCENTRATION / MEAN CORPUSCULAR VOLUME / MONOCYTE / NEUTROPHIL / NUCLEATED RED BLOOD CELLS / PLATELET COUNT: tissue Blood; for ALANINE AMINOTRANSFERASE / ALBUMIN / ALKALINE PHOSPHATASE / ASPARTATE AMINOTRANSFERASE / BLOOD UREA NITROGEN / CHLORIDE / CHOLESTEROL / CREATINE PHOSPHOKINASE / CREATININE / GLUCOSE / LACTATE DEHYDROGENASE / LIPASE / PHOSPHORUS / POTASSIUM / TOTAL BILIRUBIN / URIC ACID: tissue Plasma
[1] = 0 mg/kg, 72 h, dose level Control, time 3 day
[2] = 0 mg/kg, 120 h, dose level Control, time 5 day
[3] = 79 mg/kg, 72 h, dose level High, time 3 day

C[C@H]1C[C@H]2[C@@H]3CCC4=CC(=O)C=C[C@]4(C)[C@@]3(F)[C@@H](O)C[C@]2(C)[C@@]1(O)C(=O)CO [BETAMETHASONE]
ABSOLUTE BASOPHIL [1]: 0 CELLS/uL | ABSOLUTE EOSINOPHIL [1]: 0 CELLS/uL | ABSOLUTE LYMPHOCYTE [1]: 10887 CELLS/uL | ABSOLUTE MONOCYTE [1]: 56 CELLS/uL | ABSOLUTE SEGMENTED NEUTROPHIL [1]: 1057 CELLS/uL | BASOPHIL [1]: 0% | EOSINOPHIL [1]: 0% | ERYTHROCYTE COUNT [1]: 5.31 x10E6/uL | HEMATOCRIT [1]: 33.78% | LEUKOCYTE COUNT [1]: 12 x10E3/uL | MEAN CORPUSCULAR HEMOGLOBIN [1]: 25.25 pg | MEAN CORPUSCULAR HEMOGLOBIN CONCENTRATION [1]: 39.65 G/DL | MEAN CORPUSCULAR VOLUME [1]: 63.65 fL | MONOCYTE [1]: 0.5% | NEUTROPHIL [1]: 8.33% | NUCLEATED RED BLOOD CELLS [1]: 0 /100WBC | PLATELET COUNT [1]: 1142 x10E3/uL | ALANINE AMINOTRANSFERASE [1]: 57.17 u/L | ALBUMIN [1]: 4.28 G/DL | ALKALINE PHOSPHATASE [1]: 425.83 u/L | ASPARTATE AMINOTRANSFERASE [1]: 93.83 u/L | BLOOD UREA NITROGEN [1]: 14.17 mg/dL | CHLORIDE [1]: 100 MEQ/L | CHOLESTEROL [1]: 70.33 mg/dL | CREATINE PHOSPHOKINASE [1]: 438.67 u/L | CREATININE [1]: 0.19 mg/dL | GLUCOSE [1]: 138.5 mg/dL | LACTATE DEHYDROGENASE [1]: 190.17 u/L | LIPASE [1]: 9.83 u/L | PHOSPHORUS [1]: 11.05 mg/dL | POTASSIUM [1]: 6.59 MEQ/L | TOTAL BILIRUBIN [1]: 0.22 mg/dL | URIC ACID [1]: 1.3 mg/dL | ABSOLUTE BASOPHIL [2]: 0 CELLS/uL | ABSOLUTE EOSINOPHIL [2]: 91.17 CELLS/uL | ABSOLUTE LYMPHOCYTE [2]: 11847.67 CELLS/uL | ABSOLUTE MONOCYTE [2]: 172.83 CELLS/uL | ABSOLUTE SEGMENTED NEUTROPHIL [2]: 1105 CELLS/uL | BASOPHIL [2]: 0% | EOSINOPHIL [2]: 0.67% | ERYTHROCYTE COUNT [2]: 5.35 x10E6/uL | HEMATOCRIT [2]: 33.65% | LEUKOCYTE COUNT [2]: 13.22 x10E3/uL | MEAN CORPUSCULAR HEMOGLOBIN [2]: 25.12 pg | MEAN CORPUSCULAR HEMOGLOBIN CONCENTRATION [2]: 39.9 G/DL | MEAN CORPUSCULAR VOLUME [2]: 63 fL | MONOCYTE [2]: 1.33% | NEUTROPHIL [2]: 8.17% | NUCLEATED RED BLOOD CELLS [2]: 0 /100WBC | PLATELET COUNT [2]: 1347.83 x10E3/uL | ALANINE AMINOTRANSFERASE [2]: 50 u/L | ALBUMIN [2]: 4.1 G/DL | ALKALINE PHOSPHATASE [2]: 329.17 u/L | ASPARTATE AMINOTRANSFERASE [2]: 77.17 u/L | BLOOD UREA NITROGEN [2]: 16.83 mg/dL | CHLORIDE [2]: 99.83 MEQ/L | CHOLESTEROL [2]: 75.67 mg/dL | CREATINE PHOSPHOKINASE [2]: 295.83 u/L | CREATININE [2]: 0.18 mg/dL | GLUCOSE [2]: 156.33 mg/dL | LACTATE DEHYDROGENASE [2]: 166.83 u/L | LIPASE [2]: 9.83 u/L | PHOSPHORUS [2]: 12.18 mg/dL | POTASSIUM [2]: 6.69 MEQ/L | TOTAL BILIRUBIN [2]: 0.22 mg/dL | URIC ACID [2]: 1.6 mg/dL | ABSOLUTE BASOPHIL [3]: 0 CELLS/uL | ABSOLUTE EOSINOPHIL [3]: 18 CELLS/uL | ABSOLUTE LYMPHOCYTE [3]: 1334 CELLS/uL | ABSOLUTE MONOCYTE [3]: 44 CELLS/uL | ABSOLUTE SEGMENTED NEUTROPHIL [3]: 3004 CELLS/uL | BASOPHIL [3]: 0% | EOSINOPHIL [3]: 0.33% | ERYTHROCYTE COUNT [3]: 5.69 x10E6/uL | HEMATOCRIT [3]: 36.67% | LEUKOCYTE COUNT [3]: 4.4 x10E3/uL | MEAN CORPUSCULAR HEMOGLOBIN [3]: 25.27 pg | MEAN CORPUSCULAR HEMOGLOBIN CONCENTRATION [3]: 39.2 G/DL | MEAN CORPUSCULAR VOLUME [3]: 64.47 fL | MONOCYTE [3]: 1% | NEUTROPHIL [3]: 69% | NUCLEATED RED BLOOD CELLS [3]: 0 /100WBC | PLATELET COUNT [3]: 1406 x10E3/uL | ALANINE AMINOTRANSFERASE [3]: 146.33 u/L | ALBUMIN [3]: 5.37 G/DL | ALKALINE PHOSPHATASE [3]: 302 u/L | ASPARTATE AMINOTRANSFERASE [3]: 178 u/L | BLOOD UREA NITROGEN [3]: 25 mg/dL | CHLORIDE [3]: 96.67 MEQ/L | CHOLESTEROL [3]: 124.33 mg/dL | CREATINE PHOSPHOKINASE [3]: 219.33 u/L | CREATININE [3]: 0.27 mg/dL | GLUCOSE [3]: 443 mg/dL | LACTATE DEHYDROGENASE [3]: 492.67 u/L | LIPASE [3]: 12.67 u/L | PHOSPHORUS [3]: 11.8 mg/dL | POTASSIUM [3]: 6.32 MEQ/L | TOTAL BILIRUBIN [3]: 0.2 mg/dL | URIC ACID [3]: 1.43 mg/dL
